According to patent US20050038070A1, “Asthma and allergic inflammation modulators” (AMGEN INC., priority 2003, published 2005):

Each molecule was assayed against T1, human CRTH2 (Homo sapiens, UniProt Q9Y5Y4) (assay: Human CRTH2 binding assay (3H-PGD2 binding, 293(124) cells)). Conditions: 3H-PGD2 binding to 293(124) cells stably expressing human CRTH2.
T1 construct: Full-length human CRTH2 cDNA was generated by polymerase chain reaction (PCR); expressed in transfected cells; host or cells: 293 cells stably transfected with pHLT124 (pcDNA3.1(+)), G418-selected; named 293(124)
T1 sequence (Q9Y5Y4 1-395): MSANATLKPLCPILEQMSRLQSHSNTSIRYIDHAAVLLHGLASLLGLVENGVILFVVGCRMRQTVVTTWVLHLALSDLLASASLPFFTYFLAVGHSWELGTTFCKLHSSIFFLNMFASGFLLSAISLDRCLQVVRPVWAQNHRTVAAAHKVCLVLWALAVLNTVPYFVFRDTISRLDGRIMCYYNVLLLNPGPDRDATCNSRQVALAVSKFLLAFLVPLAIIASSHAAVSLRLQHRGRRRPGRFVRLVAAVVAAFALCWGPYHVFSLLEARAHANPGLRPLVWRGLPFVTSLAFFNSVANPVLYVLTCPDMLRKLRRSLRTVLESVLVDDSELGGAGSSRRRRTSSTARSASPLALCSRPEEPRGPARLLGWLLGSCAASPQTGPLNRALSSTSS
Experimental: Human CRTH2 Binding Assay
Full-length human CRTH2 cDNA was generated by polymerase chain reaction (PCR) using human genomic DNA as template and subsequently cloned into pcDNA3.1(+) (Invitrogen), generating a CRTH2 expression plasmid pHLT124. The plasmid was transfected into 293 cells, which […] CRTH2, using LipofectAMINETM reagents (Gibco/BRL). G418 ([…]) was added to the culture 48 h after transfection and cells were maintained under selection for 3 weeks to ensure that all surviving cells stably expressed CRTH2. These cells are labeled as 293(124) hereafter.
^3H-PGD2 binding assay was performed using 293(124) cells. In brief, cells were washed and suspended in RPMI containing 0.5% BSA and 20 mM HEPES. Each assay contained 25,000 cells, appropriate amount of test compound when necessary and a mixture of 1 nM ^3H-PGD2 (Amersham Pharmacia Biotech) and 30 nM of unlabeled PGD2 (Cayman Chemicals) in […] final volume. The cell mixture was incubated at room temperature for 2.5 h with shaking and the cells were separated from free ^3H-PGD2 and transferred onto a filter plate using a cell harvester. Radioactivity bound to the cells was measured on a liquid scintillation counter. Nonspecific binding was determined in the presence of […] of unlabeled PGD2.

Row | Structure (SMILES) | IC50
1 | CC(=O)N(c1ccccc1)[C@H]1C[C@@H](C)N(C(=O)c2ccccc2)c2ccccc21 [Compound 3] | < 40 nM
2 | CCCCC(=O)N(c1ccccc1)[C@H]1C[C@@H](C)N(C(=O)c2ccccc2)c2ccccc21 [Compound 4] | ≥ 40 nM
3 | CC(=O)N(c1ccc(Cl)cc1)[C@H]1C[C@@H](C)N(C(=O)c2ccc(Oc3ccccc3)cc2)c2ccccc21 [Compound 9] | ≥ 40 nM
4 | CC(=O)N[C@H]1C[C@@H](C)N(C(=O)c2ccccc2)c2ccccc21 [Compound 12] | ≥ 40 nM
